{
  "source": "patent US5084082A",
  "about": "“Soybean plants with dominant selectable trait for herbicide resistance” (priority 1990, dated 1992)",
  "assay_type_in_all_cases": "in vivo, soybean",
  "key": {"mutant line W17": {"tested_on": "mutant line W17", "test": "Test B postemergence cross resistance test", "conditions": "Glycine max, post-emergence; for soybean crop injury (%) at 2 g/ha: W17, 2 g/ha postemergence", "outline": "(§1)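 Cross resistance of true-breeding resistant mutants is assessed against Williams 82 using 11 ALS-inhibiting herbicides applied postemergence at two rates each. Per-pot values are means of two or three ratings over a three-week period, and line means are separated by Fisher's LSD at 95% confidence.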"}, "Williams 82 [1]": {"tested_on": "Williams 82", "test": "Test B postemergence cross resistance test", "conditions": "Glycine max, post-emergence; for soybean crop injury at 2 g/ha: Wm 82, 2 g/ha postemergence", "outline": "as §1"}, "mutant line W23": {"tested_on": "mutant line W23", "test": "Test B postemergence cross resistance test", "conditions": "Glycine max, post-emergence", "outline": "as §1"}, "mutant line W19": {"tested_on": "mutant line W19", "test": "Test B postemergence cross resistance test", "conditions": "Glycine max, post-emergence; for percent soybean crop injury at 2 g/ha: W19, 2 g/ha postemergence", "outline": "as §1"}, "mutant line W28": {"tested_on": "mutant line W28", "test": "Test B postemergence cross resistance test", "conditions": "Glycine max, post-emergence; for mean % injury to soybean at 2 g/ha: W28, 2 g/ha postemergence", "outline": "as §1"}, "mutant line W4": {"tested_on": "mutant line W4", "test": "Test B postemergence cross resistance test", "conditions": "Glycine max, post-emergence; for % crop injury at 2 g/ha: W4, 2 g/ha postemergence", "outline": "as §1"}, "mutant line W20": {"tested_on": "mutant line W20", "test": "Test B postemergence cross resistance test", "conditions": "Glycine max, post-emergence", "outline": "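Soybean mutant lines and Williams 82 sprayed postemergence at the second trifoliolate stage with ALS inhibitors (sulfonylureas, imidazolinones), each at two rates. Injury rated two to three times per pot over three weeks in the greenhouse and averaged; ANOVA per herbicide, Fisher's LSD at 95%.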"}, "mutant W20": {"tested_on": "mutant W20", "test": "Test A postemergence herbicide spray, greenhouse pots", "description": "(§2) In the first post-emergence test, two true-breeding resistant mutant lines, W19 and W20, were compared to previously isolated tolerant mutants and wild-type Williams 82. Eighteen pots (20 cm diameter) of each soybean line (2 seeds per pot) were planted using a standard sterile potting mix. When the seedlings reached the second trifoliolate stage, plants were thinned back to one plant per pot. Each pot was then sprayed with a specific herbicide treatment using a conveyor belt spray apparatus to emulate field application. The nine different herbicide treatments included one rate (8 g/ha) of Compound 1 and two rates (8 and 32 g/ha) each of four other sulfonylurea herbicides (Compounds 2,3,7 and 8) (see Table VI) using a factorial treatment design with 2 replications.\n(§3) In both postemergence tests, plants were returned to the greenhouse after treatment and provided with ample light, moisture, and nutrients to support healthy plant growth. Two to three ratings per pot were recorded over a three-week period and averaged to obtain a single value for each pot For each herbicide, analysis of variance on injury ratings was performed separately. Fisher's least significant difference (LSD) was used to determine the significance of line mean differences at each herbicide rate using the 95% level of confidence. […]"}, "mutant W19": {"tested_on": "mutant W19", "test": "Test A postemergence herbicide spray, greenhouse pots", "description": "as §2, §3"}, "Williams 82 [2]": {"tested_on": "Williams 82", "test": "Test A postemergence herbicide spray, greenhouse pots", "description": "as §2, §3"}, "Mutant 1-184A": {"tested_on": "Mutant 1-184A", "test": "Test A postemergence herbicide spray, greenhouse pots", "description": "as §2, §3"}, "W4-4 M3 family": {"tested_on": "W4-4 M3 family", "test": "Seed soak test with Compound 8", "conditions": "W4-4 M3, seeds soaked 16 hours in 2 ppm solution, within two weeks of planting", "procedure": "(§4) The original W4-4 M2 plant was allowed to self pollinate, mature, and produced a family of M3 seeds. An M3 progeny test was then conducted to determine if the new resistance phenotype was heritable and if the M3 family was true-breeding or segregating for the new resistance trait. The M3 progeny of W4-4 were screened for resistance with the same seed soak technique used to select the original W4-4 M2 plant. Twenty seeds each of the W4-4 M3 family, W20 line, and Williams line were soaked for 16 hours in a solution of 2 ppm of Compound 8. Twenty additional seeds of Williams were soaked for 16 hours in plain tap water as a control treatment. Treated seeds were then washed for two minutes in running water. Each seed was then planted in a separate pot for ease of observation."}, "Williams": {"tested_on": "Williams", "test": "Seed soak test with Compound 8", "conditions": "seeds soaked 16 hours in 2 ppm solution, within two weeks of planting", "procedure": "as §4"}, "W20": {"tested_on": "W20", "test": "Seed soak test with Compound 8", "conditions": "W20, seeds soaked 16 hours in 2 ppm solution", "procedure": "The second screening protocol was carried out as follows: samples of seed from W20 were tested for preemergence tolerance to Compound 8 by soaking seeds in a 2.0 ppm buffered solution of Compound 8 for 16 hours, rinsing, and planting in flats in a greenhouse.\nas §4"}},
  "note": "Entries after “also recorded” stand apart in the source; their conditions may differ.",
  "data": [
    {"smiles": "COc1nc(C)nc(NC(=O)NS(=O)(=O)c2ccccc2Cl)n1", "note": "[Compound 1, 2-chloro-N-[[(4-methoxy-6-methyl-1,3,5-triazin-2-yl)amino]carbonyl]benzenesulfonamide]", "values": [
      {"measurement": "soybean crop injury (%) at 2 g/ha", "setting": "mutant line W17", "result": 0, "unit": "%"},
      {"measurement": "soybean crop injury (%) at 8 g/ha", "setting": "mutant line W17; W17, 8 g/ha postemergence", "result": 0, "unit": "%"},
      {"measurement": "soybean crop injury at 2 g/ha", "setting": "Williams 82 [1]", "result": 98, "unit": "%"},
      {"measurement": "soybean crop injury at 8 g/ha", "setting": "Williams 82 [1]; Wm 82, 8 g/ha postemergence", "result": 100, "unit": "%"},
      {"measurement": "percent soybean injury at 8 g/ha", "setting": "mutant line W23; W23, 8 g/ha postemergence", "result": 0, "unit": "%"},
      {"measurement": "percent soybean crop injury at 2 g/ha", "setting": "mutant line W19", "result": 0, "unit": "%"},
      {"measurement": "percent soybean crop injury at 8 g/ha", "setting": "mutant line W19; W19, 8 g/ha postemergence", "result": 13, "unit": "%"},
      {"measurement": "mean % injury to soybean at 2 g/ha", "setting": "mutant line W28", "result": 0, "unit": "%"},
      {"measurement": "mean % injury to soybean at 8 g/ha", "setting": "mutant line W28; W28, 8 g/ha postemergence", "result": 0, "unit": "%"},
      {"measurement": "% crop injury at 2 g/ha", "setting": "mutant line W4", "result": 0, "unit": "%"},
      {"measurement": "% crop injury at 8 g/ha", "setting": "mutant line W4; W4, 8 g/ha postemergence", "result": 0, "unit": "%"},
      {"measurement": "percent crop injury at 8 g/ha", "setting": "mutant line W20; W20, 8 g/ha postemergence", "result": 0, "unit": "%"},
      {"measurement": "mean % injury", "setting": "mutant W20; W20, 8 g/ha postemergence", "result": 13, "unit": "%"},
      {"measurement": "mean % injury", "setting": "mutant W19; W19, 8 g/ha postemergence", "result": 12, "unit": "%"},
      {"measurement": "mean % injury", "setting": "Williams 82 [2]; WM 82, 8 g/ha postemergence", "result": 97, "unit": "%"},
      {"measurement": "mean % injury", "setting": "Mutant 1-184A; 8 g/ha postemergence", "result": 97, "unit": "%"}
    ]},
    {"smiles": "COC(=O)c1cccnc1S(=O)(=O)NC(=O)Nc1nc(OC)cc(OC)n1", "note": "[Compound 8, Methyl 2-[[[[(4,6-dimethoxy-2-pyrimidinyl)amino]carbonyl]amino]sulfonyl]-3-pyridinecarboxylate]", "values": [
      {"measurement": "soybean crop injury (%) at 0.5 g/ha", "setting": "mutant line W17; W17, 0.5 g/ha postemergence", "result": 26, "unit": "%"},
      {"measurement": "soybean crop injury (%) at 2 g/ha", "setting": "mutant line W17", "result": 83, "unit": "%"},
      {"measurement": "soybean crop injury at 0.5 g/ha", "setting": "Williams 82 [1]; Wm 82, 0.5 g/ha postemergence", "result": 93, "unit": "%"},
      {"measurement": "soybean crop injury at 2 g/ha", "setting": "Williams 82 [1]", "result": 98, "unit": "%"},
      {"measurement": "percent soybean injury at 0.5 g/ha", "setting": "mutant line W23; W23, 0.5 g/ha postemergence", "result": 21, "unit": "%"},
      {"measurement": "percent soybean injury at 2 g/ha", "setting": "mutant line W23; W23, 2 g/ha postemergence", "result": 70, "unit": "%"},
      {"measurement": "percent soybean crop injury at 0.5 g/ha", "setting": "mutant line W19; W19, 0.5 g/ha postemergence", "result": 29, "unit": "%"},
      {"measurement": "percent soybean crop injury at 2 g/ha", "setting": "mutant line W19", "result": 85, "unit": "%"},
      {"measurement": "mean % injury to soybean at 0.5 g/ha", "setting": "mutant line W28; W28, 0.5 g/ha postemergence", "result": 53, "unit": "%"},
      {"measurement": "mean % injury to soybean at 2 g/ha", "setting": "mutant line W28", "result": 84, "unit": "%"},
      {"measurement": "% crop injury at 0.5 g/ha", "setting": "mutant line W4; W4, 0.5 g/ha postemergence", "result": 39, "unit": "%"},
      {"measurement": "% crop injury at 2 g/ha", "setting": "mutant line W4", "result": 81, "unit": "%"},
      {"measurement": "percent crop injury at 0.5 g/ha", "setting": "mutant line W20; W20, 0.5 g/ha postemergence", "result": 19, "unit": "%"},
      {"measurement": "percent crop injury at 2 g/ha", "setting": "mutant line W20; W20, 2 g/ha postemergence", "result": 89, "unit": "%"},
      {"measurement": "mean % injury", "setting": "mutant W20; W20, 8 g/ha postemergence", "result": 93, "unit": "%"},
      {"measurement": "mean % injury", "setting": "mutant W20; W20, 32 g/ha postemergence", "result": 97, "unit": "%"},
      {"measurement": "mean % injury", "setting": "mutant W19; W19, 8 g/ha postemergence", "result": 84, "unit": "%"},
      {"measurement": "mean % injury", "setting": "mutant W19; W19, 32 g/ha postemergence", "result": 95, "unit": "%"},
      {"measurement": "mean % injury", "setting": "Williams 82 [2]; WM 82, 8 g/ha postemergence", "result": 95, "unit": "%"},
      {"measurement": "mean % injury", "setting": "Williams 82 [2]; WM 82, 32 g/ha postemergence", "result": 95, "unit": "%"},
      {"measurement": "mean % injury", "setting": "Mutant 1-184A; 8 g/ha postemergence", "result": 93, "unit": "%"},
      {"measurement": "mean % injury", "setting": "Mutant 1-184A; 32 g/ha postemergence", "result": 92, "unit": "%"},
      {"measurement": "seedling development after seed soak", "setting": "W4-4 M3 family", "result": "had developed both unifoliolate and trifoliolate leaves"},
      {"measurement": "seedling development after seed soak", "setting": "Williams", "result": "had not started to form true leaves"},
      {"measurement": "seedling development after seed soak", "setting": "W20", "result": "uniformly inhibit growth of W20 beyond the stage of emergence and cotyledon expansion; also recorded: had not started to form true leaves"}
    ]}
  ]
}
